In patent US11878972B2, “Treatment of neurological disorders” (TORQUR AG, priority 2016, dated 2024):
Read-outs that look alike come from different tables or passages of the source.

What was measured:
[1] = Maximal tolerated dose (MTD) / tolerability in BALB/c nude mice; format: in vivo; conditions: for MTD: female, BALB/c nude, mouse, in vivo, po
Method: In order to find a dose that could be used for further experiments and in order to show tolerability of compounds of the present invention, female BALB/c nude mice were treated with Cpd. 3 and Cpd. 8 by per oral (p.o.) gavage twice for five days with a two day dose holiday in between. Compounds were administered in the following vehicle: 20% Hydroxypropyl-β-cyclodextrin (HPBCD), 10% DMSO and 70% water. The major endpoint was to evaluate the body weight loss and animal survival. The body weights were recorded daily for the dosing days and at least twice weekly thereafter. The animal death was checked daily for survival. Animals were to be evaluated for 7 days post the final dose. The tolerated dose was defined as the dose that results in less than 20% mean body-weight loss, and no treatment related death during the study. The randomized block design was used to assign experimental animals to groups. First, the experimental animals were divided into homogeneous blocks according to their initial body weight. Secondly, within each block, randomization of experimental animals to treatments was conducted.
Animal supplier: Shanghai Lingchang Bio-Technology Co. Ltd (LC, Shanghai, China). Animal Certificate No.: 2013001803305. The mice were kept in individual ventilated cage (IVC) systems at constant temperature and humidity with 5 animals in each cage.
Diet: Mouse diet, C060 irradiation sterilized dry granule food. Animals had free access during the entire study period. Water: RO water, autoclaved before using. Animals had free access to sterile drinking water.
OVCAR-3 and SUDHL/6 tumor bearing BALB/c nude mice were treated with Cpd. 3, p.o. at 100 mg/kg for 21 or 15 consecutive days, respectively under the same conditions. Body weight of the mice was stable.

[2] = test system: S6 phosphorylation (S235/236); assay: mTOR signaling in brain samples of pilocarpine pre-treated and naïve mice (western blot); format: in vivo, mouse; conditions: for decrease of S6 phosphorylation (S235/236) versus control: brain, 3 hours after single oral dose: Cpd. 3 40 mg/kg, Cpd. 8 25 mg/kg, everolimus 5 mg/kg
Method: A ramping-up dosing protocol was used which has the advantage that pilocarpine can be individually applied according to the susceptibility of each mouse. Pilocarpine (Sigma-Aldrich, Germany) was administered to female NMRI mice intraperitoneally at a dose of 100 mg/kg (Pilo-SE group). […] To reduce peripheral side effects of pilocarpine, methylscopolamine (Sigma-Aldrich, Germany) was administered 30 minutes prior to the first injection of pilocarpine. Animals were continuously monitored and duration of convulsive SE was registered [referred to Racine's scale. SE onset was defined as continuous ongoing seizure activity following occurrence of one or two generalized tonic-clonic seizures [stage 4 or 5 on the Racine scale]. SE was characterized by head nodding in an upright (sitting) body position, Straub tail, and slight to moderate convulsions of forelimbs, sometimes interrupted by further generalized tonic-clonic seizures. In order to reduce mortality, SE was terminated by diazepam (10 mg/kg i.p.; diazepam-ratiopharm 10, injection solution) 90 min after SE onset. […] In the sham-SE group mice were treated with the same treatment scheme as the pilo-SE group but pilocarpine was replaced by 0.9% sodium chloride solution. The mortality in the pilo-SE model in mice is relatively high (overall about 50%) and can vary markedly between experimental groups/days. Therefore we had to start with a large number of mice for SE induction in order to reliably obtain a group size of 20-22 animals for the MEST.
Brain samples from pilocarpine treated mice and untreated mice were snap frozen and tissue was lysed in buffer containing 25 mM Tris-HCl, pH 8, 50 mM NaCl, 0.5% (w/v) sodium deoxycholate (DOC), and 0.5% (w/v) Triton X-100 and supplemented with complete protease inhibitor (Roche, Mannheim, Germany) and Phosphostop (NEB, USA). Disruption of cell lysates was performed by drawing up the cell suspension twenty times into a syringe with a small gauge needle (21 G) on ice. Protein concentrations in the lysates were determined by using the Pierce BCA Protein Assay kit (Thermo Scientific, Bonn, Germany) according to the manufacturer's instructions. […] Membranes were incubated with primary antibodies anti S6 1:1000, anti S6 Phospho Serin (240/244) 1:1000, anti S6 Phospho Serin (235/236) 1:2000 (NEB) and anti-Actin 1:100 (Sigma-Aldrich) for 1 h in 2% milk in PBST at room temperature (RT) and washed three times for 10 min in PBS-T. Secondary antibodies anti-rabbit-HRP 1:1000 (Dako, Hamburg, Germany) were incubated for 1 h in 2% milk in PBST at RT and washed three times for 10 min in PBST. Proteins were detected by enhanced chemiluminescence using SuperSignal West Femto Chemiluminescent Substrate (Thermo Scientific) and the ChemiDoc system (Bio-Rad, Munich, Germany) with QuantityOne software (Bio-Rad) according to the manufacturer's protocol. Relative protein expressions were quantified densitometrically with QuantityOne (Bio-Rad) software and calculated by normalization to the reference signals of actin with GraphPad Prism software (GraphPad, San Diego, CA, USA).
Pilocarpine pre-treated and naïve mice were treated with a single oral dose of Cpd. 3 (40 mg/kg), Cpd. 8 (25 mg/kg), everolimus (5 mg/kg) or vehicle. 5 mice per group were utilized and sacrificed after 3 hours.

[3] = test system: mTOR signaling (S6rP and 4E-BP phosphorylation) in STHdh^Q7/Q7 and STHdh^Q111/Q111 cells; assay: mTOR signaling in STHdh cells (western blot); format: cell-based, mouse; conditions: 4 hours
Method: 8 inhibit mTOR signaling and induce autophagy in neuronal cell models of HD, treatment of STHdh^Q111/Q111 and STHdh^Q7/Q7 cells was employed. […] Cells were seeded in 10 cm dishes. When cells were about 80% confluent, cells were differentiated and treated with compounds at the same time. […] At the end of incubation time cells were washed with cold PBS buffer and lysed with 200 μl of RIPA buffer supplemented with 4% Complete protease inhibitor (Roche, Switzerland) and 10% PhosStop (Roche, Switzerland). After 30 min of incubation on ice, lysates were vortexed, centrifuged (20 min, 4° C., 16000 rpm) and supernatants were collected. […] 30 μg of protein per sample was analyzed by western blot as described above using the following primary antibodies:

[4] = R6/2 pharmacokinetics (plasma, striatum, cerebellum, cortex); format: in vivo, mouse; conditions: R6/2 mice, single oral dose, one hour; Cpd. 3 75, 50, 25 mg/kg; Cpd. 8 25, 16, 8 mg/kg
Method: In order to test exposure of brain areas, R6/2 mice were treated with a single oral dose of Cpd. 3 (75 mg/kg, 50 mg/kg, 25 mg/kg) or Cpd. 8 (25 mg/kg, 16 mg/kg, 8 mg/kg), 3 animals per group. After one hour plasma was collected and animals were sacrificed. Striatum, cerebellum and cortex was separately snap frozen and analyzed for compound concentration using LC/MS/MS.

[5] = test system: STHdh^Q7/Q7 and STHdh^Q111/Q111 cells; assay: LDH assay (cytotoxicity); conditions: for LDH activity compared to control: at higher concentrations; for LDH production: time points between 24 h and 48 h
Method: Cytotoxicity of test compounds was measured using the lactate dehydrogenase (LDH) assay from Roche, Switzerland according to the manufacturer's instructions.
STHdh^Q111/Q111 and STHdh^Q7/Q7 (Coriell Institute for Medical Research, USA) were cultured in DMEM (Invitrogen, USA) supplemented with FBS (Invitrogen, USA) 10%, Geniticine (G418, Biochrom, Germany)) 1% und antibiotic antimycotic (Invitrogen, USA) 1% in a humidified incubator at 37° C. and 5% CO2. […] 10^4 STHdh^Q7/Q7 and STHdh^Q111/Q111 cells per well were seeded in a 96 well plate incubated with Cpd.

[6] = epileptic (pilocarpine pre-treated) mice

Structure (SMILES) | Body weight of the mice ([1]; OVCAR-3 and SUDHL/6 tumor bearing BALB/c nude mice, p.o. 100 mg/kg for 21 or 15 consecutive days) | MTD ([1]; BALB/c mice, p.o., twice for five days with a two day dose holiday, read-out: MTD) | decrease of S6 phosphorylation (S235/236) versus control [2, 6] | S6 phosphorylation / mTOR signaling in brain (FIG. 3B) ([2]; epileptic/pilocarpine pre-treated and naïve mice, single oral dose) | decrease of S6 phosphorylation (S235/236) versus control ([2]; naïve mice) | mTOR signaling (S6rP phosphorylation and 4E-BP phosphorylation) ([3]; Cpd. 3 200, 400, 1230 nM, Cpd. 8 130, 1230 nM, INK128 100 nM, rapamycin 400 nM) | Tissue concentrations reached [4] | LDH activity compared to control [5] | LDH production [5] | MTD [1] | low concentration at which an effect on mTOR signaling could already be observed ([3]; STHdh^Q7/Q7 cells)
Nc1cc(C(F)F)c(-c2nc(N3C4CCC3COC4)nc(N3C4CCC3COC4)n2)cn1 [Compound 3, 5-(4-(3-oxa-8-azabicyclo[3.2.1]octan-8-yl)-6-(3-oxa-8-azabicyclo[3.2.1]octan-8-yl)-1,3,5-triazin-2-yl)-4-(difluoromethyl)pyridin-2-amine] | stable | 100 mg/kg | 4.3 fold | significantly inhibited S6 phosphorylation in brain | 4.6 fold | reduced S6rP phosphorylation and 4E-BP phosphorylation | well in the efficacious range | decreased compared to control | reduced LDH production | – | –
C[C@H]1COCCN1c1nc(-c2cnc(N)cc2C(F)F)nc(N2CCOCC2)n1 [Compound 8, (S)-4-(difluoromethyl)-5-(4-(3-methylmorpholino)-6-morpholino-1,3,5-triazin-2-yl)pyridin-2-amine] | – | – | 2.8 fold | – | 10.9 fold | – | sufficient levels were reached at all concentrations | decreased compared to control | reduced LDH production | 25 mg/kg | 130 nM
